According to BindingDB's records for doi:10.1016/s0891-0618(03)00032-2 (University of Michigan, 2003):
pKi: −log10 of the molar value.

Key:
Mu-type opioid receptor = Mu-type opioid receptor (Rattus norvegicus, UniProt P33535)
[1] = target: Delta-type opioid receptor (Rattus norvegicus, UniProt P33533)
[2] = target: Kappa-type opioid receptor (Rattus norvegicus, UniProt P34975)
Nociceptin receptor = Nociceptin receptor (Rattus norvegicus, UniProt P35370)
Chain of Nociceptin receptor (P35370 whole entry): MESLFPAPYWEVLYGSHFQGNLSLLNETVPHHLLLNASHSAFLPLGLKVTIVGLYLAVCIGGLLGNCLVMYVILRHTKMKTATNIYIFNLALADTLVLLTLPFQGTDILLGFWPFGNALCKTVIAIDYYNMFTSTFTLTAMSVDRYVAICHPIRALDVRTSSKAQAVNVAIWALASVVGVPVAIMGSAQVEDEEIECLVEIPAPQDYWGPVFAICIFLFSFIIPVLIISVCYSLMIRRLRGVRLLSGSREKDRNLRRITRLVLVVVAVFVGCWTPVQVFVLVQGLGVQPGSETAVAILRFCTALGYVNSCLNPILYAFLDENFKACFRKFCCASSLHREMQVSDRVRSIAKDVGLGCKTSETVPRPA

Chain of Delta-type opioid receptor (P33533 whole entry): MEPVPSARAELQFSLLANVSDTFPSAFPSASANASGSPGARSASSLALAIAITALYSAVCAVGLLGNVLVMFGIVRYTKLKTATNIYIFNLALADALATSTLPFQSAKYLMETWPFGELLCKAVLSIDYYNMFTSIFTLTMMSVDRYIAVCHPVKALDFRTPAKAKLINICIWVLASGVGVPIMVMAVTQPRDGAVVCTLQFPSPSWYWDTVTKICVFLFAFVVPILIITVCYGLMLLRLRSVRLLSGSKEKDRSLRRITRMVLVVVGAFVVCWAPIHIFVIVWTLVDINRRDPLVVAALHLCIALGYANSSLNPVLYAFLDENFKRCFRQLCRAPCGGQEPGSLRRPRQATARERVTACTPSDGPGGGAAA
Chain of Kappa-type opioid receptor (P34975 whole entry): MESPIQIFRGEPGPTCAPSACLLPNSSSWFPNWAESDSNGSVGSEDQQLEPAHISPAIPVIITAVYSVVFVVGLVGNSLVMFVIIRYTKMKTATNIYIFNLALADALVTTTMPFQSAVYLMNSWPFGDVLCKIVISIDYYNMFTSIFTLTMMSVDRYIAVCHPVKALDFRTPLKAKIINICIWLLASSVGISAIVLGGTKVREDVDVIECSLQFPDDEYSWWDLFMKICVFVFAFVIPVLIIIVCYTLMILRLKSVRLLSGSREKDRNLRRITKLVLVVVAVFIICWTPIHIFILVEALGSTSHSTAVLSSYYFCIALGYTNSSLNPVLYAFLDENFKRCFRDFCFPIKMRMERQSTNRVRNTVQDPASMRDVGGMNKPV
Chain of Mu-type opioid receptor (P33535 whole entry): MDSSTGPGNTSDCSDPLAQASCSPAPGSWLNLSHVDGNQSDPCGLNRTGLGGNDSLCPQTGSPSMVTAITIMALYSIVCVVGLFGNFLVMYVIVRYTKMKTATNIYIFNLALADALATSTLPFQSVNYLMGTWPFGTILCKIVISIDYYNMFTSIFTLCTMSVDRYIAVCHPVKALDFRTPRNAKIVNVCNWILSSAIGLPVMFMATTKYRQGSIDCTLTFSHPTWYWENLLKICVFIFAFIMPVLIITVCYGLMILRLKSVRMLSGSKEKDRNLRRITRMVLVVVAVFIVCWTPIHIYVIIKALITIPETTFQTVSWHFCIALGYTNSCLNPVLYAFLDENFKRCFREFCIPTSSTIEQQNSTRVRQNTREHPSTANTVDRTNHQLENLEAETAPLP

Row | Molecule | pKi (Mu-type opioid receptor) | pKi [1] | pKi [2] | pKi (Nociceptin receptor)
1 | CCC12CCN(CC3CC3)C(C(=O)c3ccc(O)cc31)C2C (centres undefined) [EKC] | 8.71 | 8.61 | 8.67 | –
2 | CC(C)C[C@H](NC(=O)[C@H](CCCCN)NC(=O)[C@H](CCCN=C(N)N)NC(=O)[C@H](C)NC(=O)[C@H](CO)NC(=O)[C@H](CCCCN)NC(=O)[C@H](CCCN=C(N)N)NC(=O)[C@H](C)NC(=O)CNC(=O)[C@@H](NC(=O)[C@H](Cc1ccccc1)NC(=O)CNC(=O)CNC(=O)[C@@H](N)Cc1ccccc1)[C@@H](C)O)C(=O)N[C@@H](C)C(=O)N[C@@H](CC(N)=O)C(=O)N[C@@H](CCC(N)=O)C(=O)O [OFQ 1-17] | < 5.00 | < 5.00 | < 5.00 | –
3 | H-FSEFMRQYLVLSMQSSQ-OH [OFQ II 1-17] | < 5.00 | < 5.00 | < 5.00 | < 5.00
4 | H-FSEFMRQYLVLSMQSSQRRRTLHQNGNV-NH2 [NSC_0] | < 5.00 | < 5.00 | < 5.00 | < 5.00
